Converted amounts (≈) assume the structure as drawn.
System: apolipoprotein B (apoB) production
Test: apo B secretion into medium of HepG2 cells, competitive ELISA
Assay type: cell-based, human
Settings: for inhibitory effect on apo-B production: result in words, these results along with other preliminary studies, alone or in combination; for % apo B reduction / Apo B μg/mL medium / % apo B in medium: HepG2, 24 hours; for % apo B in medium: percent of control; for IC50: Homo sapiens, apo B in medium of HepG2 cells, 24 hours incubation, read-out: IC50 concentrations
Experimental: Limocitrin derivatives, quercetin derivatives, naturally occurring polymethoxyflavones, and tocotrienols were tested for cholesterol lowering activity in HepG2 cells. Confluent HepG2 cells were preincubated for 24 hours in a lipoprotein-free medium (Minimum Essential Medium (MEM), Life Technologies, Burlington, Canada) in which the fetal bovine serum (Life Technologies, Burlington, Canada) was replaced by bovine serum albumin (BSA, Life Technologies, Burlington, Canada) to inhibit cell proliferation and to stimulate synthesis of cholesterol-containing lipoproteins. Cells were subsequently incubated for another 24 hours in the same medium in the presence or absence of limocitrin derivatives, quercetin derivatives, naturally occurring polymethoxyflavones, or tocotrienols (See Table 1) at the highest concentrations sustaining about 100%±10% cell viability, as determined by the 3-(4,5-dimethylthiazol-2-yl)-2,5-diphenyltetrazolium bromide (MTT) viability assay. The test compounds were added to the cell culture medium after solubilization in dimethyl sulfoxide (DMSO) and filter sterilized. […] For each experiment, equal concentrations of solvent were added to all treatment media and to a control medium (without tested compounds). At the end of the incubation, culture media were collected and the concentration of the LDL structural protein, apo-B, was measured by ELISA. The competitive Elisa assay kit for determination of human apo B (Ortho Diagostics, LaJolla, Calif.) measures medium apo B concentrations within the range 0.4-0.031 μg/mL. In this assay, microtiter 96-well plates are coated with monoclonal antibody against human apo B, which binds apo B epitope from human LDL (standard curve, control sera with high and low content of human apo B) or from LDL-like lipoproteins secreted by HepG2 cells (tested media, usually 2× diluted with Ca^2+- and […]-free phosphate buffered saline (PBS)). After the exposure, a fraction of antibody is blocked and the remaining amount is captured by a subsequent incubation with conjugate containing a secondary antibody (against anti-human apo B) coupled with horseradish peroxidase. The following incubation with horseradish peroxidase substrate, o-phenylenediamine, produces a yellow color change proportional to the amount of apo B present, and the optical density of samples is measured at 490-492 nm against the blank PBS/conjugate wells. To determine whether evaluated compounds cross-react with Elisa assay, in separate study, various doses of compounds were tested in presence of cell-free culture media.
Amount of lipoprotein-associated apo-B in the media net apo-B secretion) was determined as described above, and calculated per mg cell protein. Net apo B3 secretion was also expressed as percent of control (amount of apo B in medium from cells incubated without tested compounds).

[1] = concentration 25.0 μg/mL medium
[2] = concentration 50.0 μg/mL medium
[3] = concentration 6.25 μg/mL medium
[4] = concentration 12.5 μg/mL medium
[5] = concentration 3.12 μg/mL medium

SMILES	inhibitory effect on apo-B production	% apo B reduction [1] [%]	Apo B μg/mL medium [1] [μg/mL medium]	% apo B in medium [1] [%]	% apo B reduction [3] [%]	Apo B μg/mL medium [3] [μg/mL medium]	% apo B reduction [4] [%]	Apo B μg/mL medium [4] [μg/mL medium]	% apo B in medium [3] [%]	% apo B in medium [4] [%]	also measured
COc1ccc(-c2cc(=O)c3c(O)c(OC)c(OC)c(OC)c3o2)cc1OC [5-desmethylnobiletin, 5-hydroxy-6,7,8,3′,4′-pentamethoxyflavone]	inhibitory effects	–	–	–	–	–	–	–	–	–	–
COc1ccc(-c2cc(=O)c3c(O)c(OC)c(OC)cc3o2)cc1OC [5-desmethylsinensetin, 5-hydroxy-6,7,3′,4′-tetramethoxyflavone]	inhibitory effects	27	0.84 ± 0.21	73 ± 18	–	–	–	–	–	–	% apo B reduction [2]: 64%; Apo B μg/mL medium [2]: 0.41 ± 0.20 μg/mL medium; % apo B in medium [2]: 36 ± 1%
COc1ccc(-c2oc3c(OC)c(OC)c(OC)c(OC)c3c(=O)c2OC)cc1OC [Heptamethoxyflavone, 3,5,6,7,8,3′,4′-heptamethoxyflavone]	inhibitory effects	81	0.048 ± 0.01	19 ± 3	45	0.138 ± 0.02	68	0.080 ± 0.02	55 ± 5	32 ± 9	% apo B reduction [2]: 82%; Apo B μg/mL medium [2]: 0.045 ± 0.01 μg/mL medium; IC50: 7.8 µg/mL (≈ 18 µM); % apo B in medium [2]: 18 ± 2%
COc1ccc(-c2cc(=O)c3c(OC)c(OC)c(OC)cc3o2)cc1OC [Sinensetin, 5,6,7,3′,4′-pentamethoxyflavone]	inhibitory effects	62	0.35 ± 0.04	38 ± 5	25	0.70 ± 0.13	42	0.54 ± 0.04	75 ± 14	58 ± 4	% apo B reduction [2]: 72%; Apo B μg/mL medium [2]: 0.26 ± 0.02 μg/mL medium; IC50: 17.8 µg/mL (≈ 47.8 µM); % apo B in medium [2]: 28 ± 5%
COc1ccc(-c2cc(=O)c3c(OC)c(OC)c(OC)cc3o2)cc1 [Tetra-O-methyl-Scutellarein]	–	–	–	–	29	0.305 ± 0.03	41	0.255 ± 0.06	71 ± 7	59 ± 13	–
CCOc1ccc(-c2oc3c(OC)c(OCC)cc(OCC)c3c(=O)c2OCC)cc1OC [limocitrin-3,5,7,4′-tetraethylether]	inhibitory effects	–	–	–	–	–	–	–	–	–	–
COc1ccc(-c2oc3c(OC)c(OC)cc(OC)c3c(=O)c2OC)cc1OC [limocitrin-3,5,7,4′-tetramethylether, 3,5,7,8,3′,4′-hexamethoxyflavone]	inhibitory effects	–	–	–	–	–	–	–	–	–	–
COc1ccc(-c2oc3c(OC)c(OC)cc(O)c3c(=O)c2OC)cc1OC [limocitrin-3,7,4′-trimethylether, 5-hydroxy-3,7,8,3′,4′-pentamethoxyflavone]	inhibitory effects	–	–	–	–	–	–	–	–	–	–
COc1ccc(-c2oc3c(OC)c(OC)cc(OC(C)=O)c3c(=O)c2OC)cc1OC [limocitrin-3,7,4′-trimethylether-5-acetate]	inhibitory effects	–	–	–	–	–	–	–	–	–	–
COc1ccc(-c2cc(=O)c3c(OC)c(OC)c(OC)c(OC)c3o2)cc1OC [nobiletin, 5,6,7,8,3′,4′-hexamethoxyflavone]	inhibitory effects	82	0.10 ± 0.01	18 ± 1	33	0.37 ± 0.09	68	0.175 ± 0.03	67 ± 16	32 ± 6	% apo B reduction [2]: 83%; Apo B μg/mL medium [2]: 0.095 ± 0.01 μg/mL medium; IC50: 4.9 µg/mL (≈ 12.2 µM); % apo B in medium [2]: 17 ± 1%
COc1cc(O)c2c(=O)c(OC)c(-c3ccc(OC)c(OC)c3)oc2c1 [quercetin tetramethylether, 5-hydroxy-3,7,3′,4′-tetramethoxyflavone]	inhibitory effects	–	–	–	–	–	–	–	–	–	–
COc1c(-c2ccc(OCc3ccccc3)c(OCc3ccccc3)c2)oc2cc(OCc3ccccc3)cc(OC)c2c1=O [quercetin-3,5-dimethylether-7,3′,4′-tribenzyl ether]	inhibitory effects	–	–	–	–	–	–	–	–	–	–
COc1cc(OC)c2c(=O)c(O)c(-c3ccc(OC)c(OC)c3)oc2c1 [quercetin-5,7,3′,4′-tetramethylether, 3-hydroxy-5,7,3′,4′-tetramethoxyflavone]	inhibitory effects	–	–	–	–	–	–	–	–	–	–
COc1cc(OC)c2c(=O)c(OC(C)=O)c(-c3ccc(OC)c(OC)c3)oc2c1 [quercetin-5,7,3′,4′-tetramethylether-3-acetate]	inhibitory effects	–	–	–	–	–	–	–	–	–	–
COc1ccc(-c2cc(=O)c3c(OC)c(OC)c(OC)c(OC)c3o2)cc1 [tangeretin, 5,6,7,8,4′-pentamethoxyflavone]	inhibitory effects	86	0.035 ± 0.01	14 ± 1	78	0.055 ± 0.01	81	0.048 ± 0.01	22 ± 2	19 ± 2	% apo B reduction [5]: 68%; Apo B μg/mL medium [5]: 0.080 ± 0.02 μg/mL medium; IC50: 2.5 µg/mL (≈ 6.71 µM); % apo B in medium [5]: 32 ± 8%
COc1ccc(-c2cc(=O)c3c(OC)cc(OC)c(OC)c3o2)cc1 [tetra-O-methylisoscutellarein, 5,7,8,4′-tetramethoxyflavone]	inhibitory effects	–	–	–	–	–	–	–	–	–	–

Reference: patent US7683095B2, “Compositions and methods of treating, reducing and preventing cardiovascular diseases and disorders with polymethoxyflavones” (The United States of America as represented by the …, priority 1998, dated 2010)
